Experimental data as given in PMC2737470 (Circulation research, 2009).

Columns and labels:
[1] = biological target: carboxyl terminal domain of Cx43 (Cx43CT), recombinant; test: SPR
[2] = tested on: N2a cell pairs expressing Cx43; test: Patch clamp, octanol-induced uncoupling of Cx43 channels; format: cell-based
[3] = tested on: carboxyl terminal domain of Cx43 (Cx43CT); test: Surface plasmon resonance, peptide binding to immobilised Cx43CT; settings: molecular weight-normalized responses, same sensor chip
[4] = tested on: N2a cells expressing Cx40; test: Patch clamp, octanol-induced uncoupling of Cx40 channels; format: cell-based; settings: N2a cells expressing Cx40, peptide in pipette
[5] = tested on: recombinant Cx40CT; test: Surface plasmon resonance with recombinant Cx40CT; format: binding; settings: Online Figure IV
[6] = tested on: recombinant Cx43CT; test: NMR 15N-HSQC of Cx43CT titrated with peptide; format: binding; settings: Cx43CT titrated with peptide to 1:500 and 1:900 molar ratio

CyRP-71 (cyclo-RRPPYRQ as printed in Table 1) (peptide)
SPR response amplitude normalized by molecular weight [1]: 33.9 a.u.

Cyclo-RRPPYQ (head to tail) [CyRP-62]
cells remaining coupled after ten minutes of octanol superfusion ([2]; peptide 100 μM in patch pipette): 100%

RRNYRRNY
cell pairs in which the peptide failed to prevent uncoupling ([2]; octanol-induced uncoupling, peptide in pipette): approximately 40% | cell pairs remaining coupled at the end of octanol exposure (number of pairs) ([2]; peptide in patch pipette (100 μM), 10 minutes of octanol): four of the six

Cyclo-RRPPYRQ (head to tail) [CyRP-71]
SPR response relative to CyRP-62 (times higher) [3]: 9 times | effect on time course of octanol-induced uncoupling in Cx40 (in words) [4]: did not modify the time course | SPR response with Cx40CT (in words) [5]: only a minor SPR deflection | interaction with Cx43CT by 15N-HSQC resonance shifts (in words) [6]: confirm the binding of Cx43CT to CyRP-71

RRPPYQ (backbone-cyclized (cyclo-, Q6 joined to R1)) [CyRP-62 (cyclo-RRPPYQ)]
SPR response amplitude normalized by molecular weight (125 μM) [1]: 3.71 a.u.
